Measured values reported in US6514964B1, “Fused cycloheptane and fused azacycloheptane compounds and their methods of use” (Amgen Inc., priority 1999, dated 2003).

Test system: human umbilical cord endothelial cells (HUVEC)
Assay: HUVEC proliferation assay and/or HUVEC adhesion assay
Format: cell-based
Settings: bound stated for the listed compounds
Procedure: HUVEC Proliferation Assay
1. Coat 3 NUNC polystyrene 96 well plate (VWR, 62409-120; lids 62409-118) with vitronectin (purified internally), fibronectin (Collaborative Biomed 40008A) or fibrinogen (Calbiochem 341578) 50 ng/well in 50 μl PBS, 1 hr @ RT.
a. rinse with 5 mls PBS (no Ca, Mg)
3. Rinse vitronectin plates 1× in 200 μl PBS −/− and add 3000 cells per well in 100 ul growth medium (EBM2 (Clonetics, CC-3156)+EGM2 bullet kit (CC-4176)).
4. Incubate 24 hours at 37° C. to allow attachment.
5. Remove growth medium and add 100 μl growth medium+drugs (25 μM and down by five fold steps in DMSO-0.25% final DMSO concentration).
6. Incubate for 3 days changing media (+drugs).
7. Remove non-adherent cells on Friday with Raindance 12 well plate washer.
8. Wash twice with 200 μl PBS (+Mg & Ca).
9. Tap out excess liquid.
10. Freeze @ −70° C. for 30 minutes.
11. Thaw plate and add 150 μl CyQuant fluorescent dye (Molecular Probes C-7026).
12. Read after 4 minutes @ 485λ (excitation), 530λ (emission).
1. Coat 2 NUNC polystyrene 96 well plates (VWR, 62409-120; lids 62409-118) with 50 μl vitronectin (purified internally) at 50 ng/well in PBS (−Mg & Ca), for 1 hour @ 37° C.
2. Rinse with PBS & block with 150 μl PBS/1% BSA (Sigma A8918), 1 hour at @ 37° C.
3. Prepare drug dilutions:
a. 400 fold concentrate in 100% DMSO
b. 0.25% DMSO [assay]final
c. 10 mM & down (25 μMfinal & down)
d. dilute 1 μl of 400 fold conc into 200 μl adhesion media
a. rinse with 5 ml PBS (no Ca, Mg)
6. Rinse blocking buffer from assay plate and add 50 μl of drug dilutions.
7. Resuspend cells in adhesion media, count and add 2e4 cells/well in 50 μl (4e5/ml).
8. Incubate 60 minutes @ 37° C.
9. Remove non-adherent cells with Raindance 12 well plate washer.
10. Wash twice with 200 μl PBS (+Mg & Ca)
11. Tap out excess liquid.
12. Freeze @ −70° C. for 30 minutes to overnite.
13. Thaw plate and add 150 μl CyQuant fluorescent dye (Molecular Probes C-7026).
14. Read after 2-5 minutes @ 485λ (excitation), 530λ (emission).
Adhesion medium: Media 199 (which contains […] and 0.8 mM MgSO4), 0.5% BSA, 10 mM HEPES, 1 mM MgCl2, and 1 mM MnCl2

Row | Structure (SMILES) | IC50
1 | O=C(O)CC1CCN(S(=O)(=O)NCCc2ccc3c(n2)NCCC3)Cc2ccccc21 (centres unmarked) [Example 45, 2-(2-(((2-(1,2,3,4-tetrahydropyridino(2,3-b)pyridin-7-yl)ethyl)amino)sulfonyl)-1H,3H,4H,5H-benzo[e]azain-5-yl)acetic acid] | ≤ 30 µM
2 | O=C(O)CCC1CCN(S(=O)(=O)NCCc2ccc3c(n2)NCCC3)Cc2ccccc21 (centres unmarked) [Example 47] | ≤ 30 µM
3 | O=C(O)C[C@H]1CCN(C(=O)NCCCc2ccc3c(n2)NCCC3)Cc2ccccc21 [Example 52, 2-((5R)-2-(N-(3-(1,2,3,4-tetrahydropyridino(2,3-b)pyridin-7-yl)prop-1-yl)carbamoyl)-1H,3H,4H,5H-benzo[e]azapin-5-yl)acetic acid] | ≤ 30 µM
4 | O=C(O)C[C@H]1CCN(C(=O)NCCc2ccc3c(n2)NCCC3)Cc2ccccc21 [Example 53, 2-((5R)-2-(N-(3-(1,2,3,4-tetrahydropyridino(2,3-b)pyridin-7-yl)ethyl)carbamoyl)-1H,3H,4H,5H-benzo[e]azapin-5-yl)acetic acid] | ≤ 30 µM
5 | O=C(O)C[C@@H]1CCN(C(=O)NCCc2ccc3c(n2)NCCC3)Cc2ccccc21 [Example 54, 2-((5S)-2-(N-(3-(1,2,3,4-tetrahydropyridino(2.3-b)pyridin-7-yl)ethyl)carbamoyl)-1H,3H,4H,5H-benzo[e]azapin-5-yl)acetic acid] | ≤ 30 µM
6 | O=C(O)C[C@@H]1CCN(C(=O)CCCc2ccc3c(n2)NCCC3)Cc2ccccc21 [Example 55] | ≤ 30 µM
7 | O=C(O)CC1CCN(C(=O)CCCc2ccc3c(n2)NCCC3)Cc2ccccc21 (centres unmarked) [Example 56, 2-[2-(4-(1,2,3,4-tetrahydropyridino[2,3-b]pyridin-7-yl)butanoyl)-1H,3H,4H,5H-benzo[e]azepin-5-yl]acetic acid] | ≤ 30 µM
8 | O=C(O)CC1Cn2cc(C(=O)NCCc3ccc4c(n3)NCCC4)nc2Cc2ccccc21 (centres unmarked) [Example 63, 2-{2-[N-(2-(1,2,3,4-tetrahydropyridino [2,3-b]pyridin-7-yl)ethyl)carbamoyl]-4H,5H,10H-benzo[d]imidazolo[1,2-a]azepin-5-yl}acetic acid] | ≤ 30 µM
9 | CC(C)N(CCc1ccc2c(n1)NCCC2)C(=O)c1cn2c(n1)Cc1ccccc1C(CC(=O)O)C2 (centres unmarked) [Example 64, 2-{2-[N-(methylethyl)-N-(2-(1,2,3,4-tetrahydropyridino[2,3-b]pyridin-7-yl)ethyl)carbamoyl]-4H,5H,10H-benzo[d]imidazolo[1,2-a]azepin-5-yl}acetic acid] | ≤ 30 µM
10 | CC(C)N(Cc1cnc2c(c1)CCCN2)C(=O)c1cn2c(n1)Cc1ccccc1C(CC(=O)O)C2 (centres unmarked) [Example 65, 2-{2-[N-(methylethyl)-N-(1,2,3,4tetrahydropyridino[2,3-b]pyridine-6-ylmethyl)carbamoyl]-4H,5H,10H-benzo[d]imidazolo[1,2-a]azepin-5-yl}acetic acid] | ≤ 30 µM
11 | O=C(O)CC1Cn2cc(C(=O)NCc3cnc4c(c3)CCCN4)nc2Cc2ccccc21 (centres unmarked) [Example 66, 2-{2-[N-(1,2,3,4-tetrahydropyridino [2,3-b]pyridin-6-ylmethyl)carbamoyl]-4H,5H,10H-benzo[d]imidazolo[1,2-a]azepin-5-yl}acetic acid] | ≤ 30 µM
12 | CN(CCCNc1ccccn1)C(=O)c1cn2c(n1)Cc1ccccc1C(CC(=O)O)C2 (centres unmarked) [Example 67, 2-(2-{N-methyl-N-[3-(2-pyridylamino)propyl]carbamoyl}-4H,5H,10H-benzo[d]imidazolo[1,2-a]azepin-5-yl)acetic acid] | ≤ 30 µM
13 | COc1ccc2c(c1)CN(C(=O)NCCCc1ccc3c(n1)NCCC3)CCC2CC(=O)O (centres unmarked) [Example 71, 2-(8-methoxy-2-(N-(3-(1,2,3,4-tetrahydropyridino[2,3,b]pyridin-7-yl)propyl)carbamoyl)-1H,3H,4H,5H-benzo[e]azaperhydroepin-5-yl) acetic acid] | ≤ 30 µM
14 | O=C(O)CC1CCN(C(=O)NCCCc2ccc3c(n2)NCCC3)Cc2cc(OCc3ccccc3)ccc21 (centres unmarked) [Example 72] | ≤ 30 µM
15 | O=C(O)CC1CCN(C(=O)NCCCc2ccc3c(n2)NCCC3)Cc2cc(-c3ccccc3)ccc21 (centres unmarked) [Example 73, 2-(8-phenyl-2-(N-(3-(1,2,3,4-tetrahydropyridino[2,3,b]pyridin-7-yl)propyl)carbamoyl)-1H,3H,4H,5H-benzo[e]azaperhydroepin-5-yl) acetic acid] | ≤ 30 µM
16 | O=C(O)CC1CCN(C(=O)NCCCCNC2=NCCN2)Cc2ccccc21 (centres unmarked) [Example 75, 2-(2-(N-(4-(4,5-dihydroimidazo-2-yl)aminobut-1-yl)carbamoyl)-1H,3H,4H-5H-benzo[e]azapin-5-yl)acetic acid] | ≤ 30 µM
17 | O=C(O)CC1CCN(C(=O)NCCCc2ccc3c(n2)NCCC3)Cc2cc(Cl)ccc21 (centres unmarked) [Example 78, 2-{8-Chloro-2-[N-(3-(1,2,3,4-tetrahydropyridino[2,3-b]pyridin-7-yl)propyl)carbamoyl]-1H,3H,4H,5H-benzo[e]azepin-5-yl}acetic acid] | ≤ 30 µM
18 | O=C(O)CC1CCN(C(=O)NCCCc2ccc3c(n2)NCCC3)Cc2cc(Br)ccc21 (centres unmarked) [Example 79, 2-{8-Bromo-2-[N-(3-(1,2,3,4-tetrahydropyridino[2,3-b]pyridin-7-yl)propyl)carbamoyl]-1H,3H,4H,5H-benzo[e]azepin-5-yl}acetic acid] | ≤ 30 µM
19 | O=C(O)CC1CCN(C(=O)NCCCc2ccc3c(n2)NCCC3)Cc2cc(Br)c(Br)cc21 (centres unmarked) [Example 80, 2-{7,8-Dibromo-2-[N-(3-(1,2,3,4-tetrahydropyridino[2,3-b]pyridin-7-yl)propyl)carbamoyl]-1H,3H,4H,5 H-benzo[e]azepin-5-yl}acetic acid] | ≤ 30 µM
20 | CS(=O)(=O)Nc1ccc2c(c1)CN(C(=O)NCCCc1ccc3c(n1)NCCC3)CCC2CC(=O)O (centres unmarked) [Example 81, 2-{8-[(Methylsulfonyl)amino]-2-[N-(3-(1,2,3,4-tetrahydropyridino[2,3-b]pyridin-7-yl)Propyl)carbamoyl]-1H,3H,4H,5H-benzo[e]azepin-5-yl}acetic acid] | ≤ 30 µM
21 | O=C(O)CC1CCN(C(=O)NCCCc2ccc3c(n2)NCCC3)Cc2cc(NS(=O)(=O)c3ccccc3)ccc21 (centres unmarked) [Example 82, 2-{8-[(Phenylsulfonyl)amino]-2-[N-(3-(1,2,3,4-tetrahydropyridino[2,3-b]pyridin-7-yl)propyl)carbamoyl]-1H,3H,4H,5H-benzo[e]azepin-5-yl}acetic acid] | ≤ 30 µM
22 | O=CNc1ccc2c(c1)CN(C(=O)NCCCc1ccc3c(n1)NCCC3)CCC2CC(=O)O (centres unmarked) [Example 83, 2-{8-Carbonylamino-2-[N-(3-(1,2,3,4-tetrahydropyridino[2,3-b]pyridin-7-yl)propyl)carbamoyl]-1H,3H,4H,5H-benzo[e]azepin-5-yl}acetic acid] | ≤ 30 µM
23 | CN(C)c1ccc2c(c1)CN(C(=O)NCCCc1ccc3c(n1)NCCC3)CCC2CC(=O)O (centres unmarked) [Example 84, 2-{8-(Dimethylamino)-2-[N-(3-(1,2,3,4-tetrahydropyridino[2,3-b]pyridin-7-yl)propyl)carbamoyl]-1H,3H,4H,5H-benzo[e]azepin-5-yl}acetic acid] | ≤ 30 µM
